Measurements published in US9844546B2, “Antibody against human HIF hydroxylase” (OXFORD UNIVERSITY INNOVATION LIMITED, priority 2001, dated 2017).

Tested on: cytoplasmic extract-dependent modification of the 5′ VHL E3 target site
Assay: Peptide competition of cytoplasmic extract-dependent modification of GAL-HIF-1α 344-553, in vitro VHL E3 ubiquitylation
Type: biochemical, human
Settings: 12.5 μM peptide, RCC4 cytoplasmic extract
Description: The E1 activating enzyme used in ubiquitylation assays was either obtained from Affiniti Research (Exeter, UK) or purified from BL21 (DE3) E. coli transfected with plasmid expressing His6-tagged mouse E1. His6-E1 was purified by Ni^2+-agarose affinity chromatography. After dialysis against phosphate buffered saline, glycerol was added to 10% (vol/vol) and 25 ng/μl aliquots stored at −80° C. Human CDC34 recombinant E2 enzyme was from Affiniti Research (Exeter, UK). VHL E3 was obtained by anti-HA immunoprecipitation from stably transfected 7860-VHLHA cell lysates (Iliopoulos et al). GAL-HIF-1α substrate was prepared by anti-GAL immunoprecipitation from [^35S] methionine-labeled TnT rabbit reticulocyte (Promega) translates. Each 40 μl ubiquitylation reaction consisted of 4 μl of 5 mg/ml ubiquitin, 4 μl of 10×ATP regenerating system (20 mM Tris pH7.5, 10 mM ATP, 10 mM magnesium acetate, 300 mM creatine phosphate, 0.5 mg/ml creatine phosphokinase), 2 μl, E1, 3 μl E2, 6 μl VHL E3 immunopurified on protein G sepharose, 6 μl GAL-HIF-1α substrate immunopurified on agarose beads. Reactions were incubated at 30° C. for 2 h with occasional mixing, stopped by the addition of SDS sample buffer and analysed by SDS-PAGE and autoradiography. Cytoplasmic extract-based ubiquitylation assays have been previously described (Cockman).
It has been shown above that the 3′ VHL E3 target site responds to oxygen level via hydroxylation at proline residue 564. This praline residue forms part of a potential motif conserved between the 5′ and 3′ target sites. Mutation of the corresponding proline residue (P402A) in the 5′ target site also results in functional inactivation. It was possible therefore that proline residue 402 was also a target for regulatory hydroxylation, To test this we asked whether polypeptides corresponding to the 3′ VHL E3 target site could interfere with the cytoplasmic extract-dependent modification of the 5′ VHL E3 target site. […]

Row | Substance | competition of cytoplasmic extract effect on VHL-dependent ubiquitylation of GAL 344-553
1 | 19:Pro564Hyp: polypeptide (HIF-1α residues 556-574) containing a trans-4-hydroxy-S-proline residue at position 564 | unable to compete
2 | 19:WT: polypeptide comprising HIF-1α residues 556 to 574 | completely ablate the cytoplasmic extract effect
